{"source": "paper PMC2873071", "about": "(Nature chemical biology, 2010)", "biological_target": "T1, glucocerebrosidase (GC; Cerezyme, recombinant WT GC) (Homo sapiens, UniProt P04062)", "T1 sequence (P04062 40-536)": "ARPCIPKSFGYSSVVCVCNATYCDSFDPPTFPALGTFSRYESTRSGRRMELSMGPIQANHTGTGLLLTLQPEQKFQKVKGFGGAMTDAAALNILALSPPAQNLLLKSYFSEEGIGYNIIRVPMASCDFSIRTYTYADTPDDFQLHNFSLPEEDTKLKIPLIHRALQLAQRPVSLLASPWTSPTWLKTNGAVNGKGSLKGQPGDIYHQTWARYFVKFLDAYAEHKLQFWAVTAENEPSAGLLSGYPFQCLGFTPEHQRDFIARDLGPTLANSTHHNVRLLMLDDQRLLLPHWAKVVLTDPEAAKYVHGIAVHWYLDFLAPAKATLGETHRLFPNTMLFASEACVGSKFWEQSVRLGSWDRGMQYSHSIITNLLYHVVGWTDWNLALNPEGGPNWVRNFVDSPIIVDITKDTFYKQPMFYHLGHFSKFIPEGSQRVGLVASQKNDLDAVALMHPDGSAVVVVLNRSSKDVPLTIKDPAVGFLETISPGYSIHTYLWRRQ", "experiment": "in vitro enzyme inhibition assay with recombinant GC", "type": "biochemical", "data": [{"smiles": "O=C1CN(/N=C/c2ccc(-c3ccc([N+](=O)[O-])cc3)o2)C(O)=N1", "note": "[compound 3, dantrolene]", "values": [{"measurement": "IC50", "result": "~90", "unit": "µM"}]}]}
